Consider one compound from patent US10952434B2, “Compositions and methods for attracting insects” (The United States of America, as Represented by the …, priority 2016, dated 2021).

Common to all, as to type: in vivo
The subject of one assay is female Aedes aegypti. As to the kind of experiment: Flight tunnel mosquito bioassay. The conditions noted are these: for mean fed / mean probed: paired with CO2 (dry ice) + air; for fed (mean of triplicates) / probed (mean of triplicates): paired with control. The procedure: Mosquitoes: Aedes aegypti (Liverpool) were reared in an insectary using standard rearing procedures. Approximately 50 larvae were reared in plastic cups (13×7×7.5 cm) at 27±1° C., and were fed ground up fish pellets. Adults were contained in plastic cartons covered by nylon screening and were fed using cotton pads soaked in a 10% glucose solution. Prior to blood feeding, 20 adult females, approximately 6 to 8 days old, were aspirated out of the rearing cartons and placed in to a stock cage (20×20×20 cm). Flight Tunnel Mosquito Bioassay: The assay system consists of a six well reservoir placed at the upwind end of a flight tunnel ([…]). Temperature and humidity of the flight tunnel were maintained at rearing conditions as described above. Air was constantly pushed through the flight tunnel at a wind speed of 35 ft/min. The four center wells of the six well reservoir were utilized in these bioassays. One of the 3 cm×4 cm wells contained 6 ml of citrate-phosphate-dextrose-adenine (CPDA) solution and three wells contained 6 ml of CPDA solution supplemented with adenosine triphosphate (ATP) (Sigma Chemical Co., St. Louis, Mo.). A constant-temperature water circulator warmed the reservoir to 38° C. A collagen membrane (Devro, Sandy Run, S.C.) was placed over the wells and secured to the reservoir with a light coat of high-vacuum grease (Dow Corning Corp., Midland, Mich.). The membranes were replaced after each replicate observation and additional substrate was added as needed. The reservoir and CPDA solution was used for one replicate. Twenty mosquitoes were aspirated into a cylindrical release canister (20.5 mm×7 mm) containing a mesh screen on one end and a damper on the opposite end (Precision Plastics, Inc., Beltsville, Md.). Mosquitoes were allowed to acclimate in the canister for ten minutes and then were utilized in bioassays. The canister was placed downwind of the reservoir in the flight tunnel. Human breath was introduced in a plume into the tunnel for one minute prior to opening of the release canister. Mosquitoes were then released into the flight tunnel where the number of mosquitoes biting (proboscis inserted through the membrane) within each cell during the 10-min exposure was recorded. The solution in each well consisted of either CPDA in deionized water or one of the three experimental solutions, 10^−2M, 10^−3 M, or 10^−4 M ATP with CPDA, each marked with a randomly assigned food dye color (Betty Crocker). The position of each colored solution in the reservoir was also randomized. Mosquitoes were used once in a test and then aspirated for determination of engorgement. Several attractant candidates were compared one on one with each other, and with CO2 in the flight tunnel to evaluate efficacy.

The test system of assay [1] is host seeking Aedes albopictus females. As to the kind of experiment: Field study with BG Sentinel traps in yards. The note with it: BG Sentinel trap with attractant lure, 24 hr periods, 10 yards; control 3-4. The procedure:
In field studies, Okoumal (1) was evaluated as an attractant for host seeking Aedes albopictus females in the BG Sentinel traps placed in different areas (yards). In the before and after control intervention evaluation, one standard BG Sentinel mosquito trap was placed in each of the 10 yards and mosquitoes were trapped for 24 hr periods in ten replicates. The first five replicates were before adding Okoumal attractant as intervention. The second set of five replicates included additional lure to the BG Sentinel trap. The traps with attractant lures collected more mean mosquitoes per trap per day (6-7 vs 3-4 mosquitoes), compared to control.

Assay [2] has as its system Aedes albopictus, Ae. triseratus, and Ae. japonicus. Description: Field study with oviposition cups. The note with it: 0 to 1% in oviposition cups, forested area, retrieved after 10 days. The procedure: In the second field study different concentrations (0 to 1%) of Okoumal (1) were added to oviposition cups. Oviposition cups were placed in forested area that has known populations of Aedes albopictus, Ae. triseratus, and Ae. japonicus. Ovicups were retrieved after 10 days and accessed for the presence of mosquito eggs of different species.

`CC1COC(C)(c2ccc3c(c2)C(C)(C)CCC3(C)C)O1` (centres unmarked) [Okoumal]: the mean fed in the assay with female Aedes aegypti (0.1% concentration) is 3.9; with female Aedes aegypti (1% concentration), 3.8. In addition, the values for the mean probed in the assay on female Aedes aegypti (0.1% concentration) and in the assay with female Aedes aegypti (1% concentration) were 3.6 and 4.1, respectively. The results for the “fed (mean of triplicates)” value in the assay on female Aedes aegypti (0.10% concentration), in the assay with female Aedes aegypti (1.00% concentration) and in the assay with female Aedes aegypti (5% concentration) were 3.3, 2.8 and 2.3, respectively. Moreover, the “probed (mean of triplicates)” value was found to be 18.3 in the assay with female Aedes aegypti (0.10% concentration), 9.7 in the assay with female Aedes aegypti (1.00% concentration) and 13.3 in the assay with female Aedes aegypti (5% concentration). In addition, in the assay on female Aedes aegypti (compared with CO2 and cyclopentanone, host seeking female mosquitoes), the “feeding (host seeking) preference, in words” value is recorded as “consistent feeding (host seeking) preference”. In addition, in the assay on female Aedes aegypti (three different concentrations), the “feeding attraction, in words” value was “consistent feeding attraction”. In assay [1], the “mean mosquitoes per trap per day” value is listed as 6-7 mosquitoes. In addition, the “effect on numbers of oviposited eggs, in words” value in assay [2] is recorded as “significant effect of Okoumal concentration on numbers of oviposited eggs”.
